Data as given in patent publication US7811352B2, “Fertilizer compositions and methods of using” (priority 2005, dated 2010).

Assays:
Assay type in all cases: in vivo
[1] = tested on: ultra-dwarf Bermuda grass; test: Phytotoxicity rating, ultra-dwarf Bermuda grass greens (Example 11); details: scale 0-5, 5=worst
Text: In this Example, the effect of a fertilizer comprising lysine on warm season turfgrass growth was examined. The effects of lysine (HCl) and LIQUID LYSINE on a common type of golf course greens quality turfgrass (ultra-dwarf Bermuda grass) were compared with those of urea and Milorganite.
Twelve fertilizer treatments comprising three concentrations of each fertilizer composition (Milorganite (N—P—K, 6-2-0), urea (N—P—K, 46-0-0), LIQUID LYSINE (N—P—K, 10-2-1), and lysine (HCl) (N—P—K, 15-2-1)) were prepared and applied to 3 replications of ultra-dwarf Bermuda grass. The lysine (HCl) was dissolved in water prior to application. Each fertilizer treatment was applied in concentrations of 0.125 lb N/1000 ft^2/week, 0.25 lb N/1000 ft^2/week and 0.75 lb N/1000 ft^2/week. The urea, LIQUID LYSINE and lysine (HCl) were applied as foliar liquids, while Milorganite was applied as a granular fertilizer. Plot size was 1 m×1 m set up as a randomized complete block. Plots were mowed at 0.125 inches before fertilizer application. Irrigation (0.15 inch) was applied following application. Plots were rated for turfgrass quality and color (scale of 1-10 where 10=dark green turf, 1=dead/brown turf, and 6=initially acceptable turf) and phytotoxicity (scale of 0-5, where 5=worst, and 2=minimally objectionable) throughout the study period. Quality, color, and phytotoxicity were measured on 2 days before application (day −2) and day 2, day 5, day 15 and day 21 after application. All data was subject to statistical analysis and significant means were determined. Average turfgrass quality ratings for the treatments are presented in Table 12 and the quality results for application rates of 0.25 lb N/1000 ft^2/week are graphically presented in FIG. 6.

[2] = tested on: Moonlight Kentucky bluegrass; test: Phytotoxic injury rating, Kentucky bluegrass lawn (Example 17)
Text: In this Example, the effect of a fertilizer comprising lysine on cool season lawn variety turfgrass growth was examined. The effects of lysine (HCl) and LIQUID LYSINE on a common variety of law turfgrass (Moonlight Kentucky bluegrass) were compared with those of urea, Milorganite and a blended fertilizer (a blend of methylene urea and urea in an approximately 1:1 ratio).
Fifteen fertilizer treatments comprising three concentrations of each fertilizer composition (Milorganite N—P—K, 6-2-0), urea (N—P—K, 46-0-0), a blended fertilizer, LIQUID LYSINE (N—P—K, 10-2-1), and lysine (HCl) (N—P—K, 15-2-1)) were prepared and applied to 3 replications of newly established “Moonlight” variety Kentucky bluegrass lawn turfgrass. The urea, lysine (HCl), and LIQUID LYSINE were dissolved/suspended in 1.5 gal water prior to application. […], […], The urea, LIQUID LYSINE and lysine (HCl) were applied as foliar liquids, while Milorganite and the blended fertilizer were applied as granular fertilizers. Plot size was 4 ft×8 ft laid out in a replicated complete block design. Plots were mowed at 2.0 inches before fertilizer application and mowed two times per week to 2.0 inch height. Grass clippings were not removed from the plots and no supplemental cultural maintenance or pest management was applied. Irrigation (0.15 inch) was applied following application and thereafter only when necessary to insure survival of the turf. Plots were rated for turfgrass quality (scale of 1-9 where 9=dark green turf, 1=dead/brown turf, and 6=minimally acceptable turf) and phytotoxic injury (scale of 0-9 where 9=significant foliar injury and 2=minimally objectionable foliar injury) throughout the study period. Quality was measured prior to application (day 0) and day 37, day 70 and day 95 after application. Injury was measured on day 37 and day 70 after application. In addition, blade density of the grass was measured on day 70 after application (scale of 1-9, where 9=very dense turf, 1=low density turf). All data was subject to statistical analysis and significant means were determined.

[3] = tested on: Pennlinks creeping bentgrass maintained as a golf fairway; test: Turfgrass quality rating, fairway creeping bentgrass (Example 15); details: scale of 1-9
Text: In this Example, the effect of a fertilizer comprising lysine on cool season fairway turfgrass growth was examined. The effects of lysine (HCl) and LIQUID LYSINE on a common type of golf course fairway variety turfgrass (Pennlinks creeping bentgrass maintained as a golf fairway) were compared with those of urea, Milorganite and a blended fertilizer (a blend of methylene urea and urea in an approximately 1:1 ratio).
Fifteen fertilizer treatments comprising three concentrations of each fertilizer composition (Milorganite (N—P—K, 6-2-0), urea (N—P—K, 46-0-0), a blended fertilizer, LIQUID LYSINE (N—P—K, 10-2-1), and lysine (HCl) (N—P—K, 15-2-1)) were prepared and applied to 3 replications of a well established Pennlinks creeping bentgrass maintained as a golf fairway grass. The urea, lysine (HCl), and LIQUID LYSINE were dissolved/suspended in 1.5 gal water prior to application. […] The urea, LIQUID LYSINE and lysine (HCl) were applied as foliar liquids, while Milorganite and the blended fertilizer were applied as granular fertilizers. Plot size was 4 ft×8 ft laid out in a replicated complete block design. Plots were mowed at 0.5 inches before fertilizer application and mowed three times per week to 0.5 inch height. Grass clippings were not removed from the plots and no supplemental cultural maintenance was applied. Irrigation (0.15 inch) was applied following application and every other day thereafter. Plots were rated for turfgrass quality (scale of 1-9 where 9=dark green turf, 1=dead/brown turf, and 6=minimally acceptable turf and phytotoxic injury (scale of 0-9 where 9=significant foliar injury and 2=minimally objectional foliar injury) throughout the study period. Quality was measured prior to application (day 0) and day 37, day 70 and day 95 after application. Injury was measured on day 37, day 70 and day 95 after application. All data was subject to statistical analysis and significant means were determined. Average turfgrass quality ratings for the treatments are presented in Table 24.

[4] = Weekly Rate 0.125 lbs N/1000 ft^2, Day 2
[5] = Weekly Rate 0.125 lbs N/1000 ft^2, Day 5
[6] = Weekly Rate 0.125 lbs N/1000 ft^2, Day 15
[7] = Weekly Rate 0.125 lbs N/1000 ft^2, Day 21
[8] = Weekly Rate 0.125 lbs N/1000 ft^2, Day −2 (before application)
[9] = Weekly Rate 0.25 lbs N/1000 ft^2, Day 2
[10] = Weekly Rate 0.25 lbs N/1000 ft^2, Day 5
[11] = Weekly Rate 0.25 lbs N/1000 ft^2, Day 15
[12] = Weekly Rate 0.25 lbs N/1000 ft^2, Day 21
[13] = Weekly Rate 0.25 lbs N/1000 ft^2, Day −2 (before application)
[14] = Weekly Rate 0.75 lbs N/1000 ft^2, Day 2
[15] = Weekly Rate 0.75 lbs N/1000 ft^2, Day 5
[16] = Weekly Rate 0.75 lbs N/1000 ft^2, Day 15
[17] = Weekly Rate 0.75 lbs N/1000 ft^2, Day 21
[18] = Weekly Rate 0.75 lbs N/1000 ft^2, Day −2 (before application)
[19] = Weekly Rate 0.5 lbs N/1000 ft^2, Day 37
[20] = Weekly Rate 0.5 lbs N/1000 ft^2, Day 70
[21] = Weekly Rate 1.0 lbs N/1000 ft^2, Day 37
[22] = Weekly Rate 1.0 lbs N/1000 ft^2, Day 70
[23] = Weekly Rate 3.0 lbs N/1000 ft^2, Day 37
[24] = Weekly Rate 3.0 lbs N/1000 ft^2, Day 70
[25] = Weekly Rate 0.5 lbs N/1000 ft^2, Day 0
[26] = Weekly Rate 0.5 lbs N/1000 ft^2, Day 95
[27] = Weekly Rate 1.0 lbs N/1000 ft^2, Day 0
[28] = Weekly Rate 1.0 lbs N/1000 ft^2, Day 95
[29] = Weekly Rate 3.0 lbs N/1000 ft^2, Day 0
[30] = Weekly Rate 3.0 lbs N/1000 ft^2, Day 95

Row | Compound | Phytotoxicity - Dwarf Bermuda Grass [1, 4] | Phytotoxicity - Dwarf Bermuda Grass [1, 5] | Phytotoxicity - Dwarf Bermuda Grass [1, 6] | Phytotoxicity - Dwarf Bermuda Grass [1, 7] | Phytotoxicity - Dwarf Bermuda Grass [1, 8] | Phytotoxicity - Dwarf Bermuda Grass [1, 9] | Phytotoxicity - Dwarf Bermuda Grass [1, 10] | Phytotoxicity - Dwarf Bermuda Grass [1, 11] | Phytotoxicity - Dwarf Bermuda Grass [1, 12] | Phytotoxicity - Dwarf Bermuda Grass [1, 13] | Phytotoxicity - Dwarf Bermuda Grass [1, 14] | Phytotoxicity - Dwarf Bermuda Grass [1, 15] | Phytotoxicity - Dwarf Bermuda Grass [1, 16] | Phytotoxicity - Dwarf Bermuda Grass [1, 17] | Phytotoxicity - Dwarf Bermuda Grass [1, 18] | Injury Rating - Kentucky Bluegrass [2, 19] | Injury Rating - Kentucky Bluegrass [2, 20] | Injury Rating - Kentucky Bluegrass [2, 21] | Injury Rating - Kentucky Bluegrass [2, 22] | Injury Rating - Kentucky Bluegrass [2, 23] | other results
1 | Cl.NCCCC[C@H](N)C(=O)O [Lys (HCl) 15% N, L-lysine monohydrochloride] | 0 | 0 | 0 | 0 | 0 | 0 | 0 | 0 | 0 | 0 | 0 | 0 | 0 | 0 | 0 | 1.7de | 5.0c | 2.7cd | 6.0abc | 6.3a | Injury Rating - Kentucky Bluegrass [2, 24]: 7.0ab; Quality Rating - Fairway Bentgrass [3, 25]: 6.3a; Quality Rating - Fairway Bentgrass [3, 19]: 6.0ab; Quality Rating - Fairway Bentgrass [3, 20]: 6.0; Quality Rating - Fairway Bentgrass [3, 26]: 7.0a; Quality Rating - Fairway Bentgrass [3, 27]: 7.0a; Quality Rating - Fairway Bentgrass [3, 21]: 7.0a; Quality Rating - Fairway Bentgrass [3, 22]: 5.7; Quality Rating - Fairway Bentgrass [3, 28]: 7.0a; Quality Rating - Fairway Bentgrass [3, 29]: 7.0a; Quality Rating - Fairway Bentgrass [3, 23]: 6.7ab; Quality Rating - Fairway Bentgrass [3, 24]: 5.7; Quality Rating - Fairway Bentgrass [3, 30]: 7.0a
2 | NC(N)=O [Urea, urea, reference compound] | 0 | 0 | 0 | 0 | 0 | 0 | 0 | 0 | 0 | 0 | 0 | 0 | 0 | 0 | 0 | 1.0e | 5.0c | 1.3e | 5.7bc | 3.3bc | Injury Rating - Kentucky Bluegrass [2, 24]: 7.0ab; Quality Rating - Fairway Bentgrass [3, 25]: 6.7a; Quality Rating - Fairway Bentgrass [3, 19]: 6.7ab; Quality Rating - Fairway Bentgrass [3, 20]: 6.0; Quality Rating - Fairway Bentgrass [3, 26]: 7.0a; Quality Rating - Fairway Bentgrass [3, 27]: 7.0a; Quality Rating - Fairway Bentgrass [3, 21]: 7.0a; Quality Rating - Fairway Bentgrass [3, 22]: 6.7; Quality Rating - Fairway Bentgrass [3, 28]: 7.0a; Quality Rating - Fairway Bentgrass [3, 29]: 6.3a; Quality Rating - Fairway Bentgrass [3, 23]: 7.0a; Quality Rating - Fairway Bentgrass [3, 24]: 6.0; Quality Rating - Fairway Bentgrass [3, 30]: 7.0a
